Assay results reported in US20050065202A1, “Use of sulphonamide derivatives for the manufacture of a medicament for the prophylaxis and/or treatment of disorders of food ingestion” (priority 2003, published 2005).
Where a name gives a salt, the structure may show the parent alone.

Tests used:
[1] = target: T1, 5HT6-human recombinant receptor (Homo sapiens, UniProt P50406); test: Binding to serotonin receptor 5HT6 ([3H]-LSD displacement, HEK-293 cell membranes); details: for inhibition at 1 µM: read-out: % Inhibition 10^−6 M
T1 construct: purchased Receptor Biology; host or cells: HEK-293 cell membranes
Experimental: Binding to Serotonin Receptor 5HT6
The respective part of the literature description is hereby incorporated by reference and forms part of the disclosure. […] Tests were made in triplicate.
The binding of the inventively used sulphonamide derivatives of general formula (I) was determined as described above.

T1 sequence (P50406 whole entry): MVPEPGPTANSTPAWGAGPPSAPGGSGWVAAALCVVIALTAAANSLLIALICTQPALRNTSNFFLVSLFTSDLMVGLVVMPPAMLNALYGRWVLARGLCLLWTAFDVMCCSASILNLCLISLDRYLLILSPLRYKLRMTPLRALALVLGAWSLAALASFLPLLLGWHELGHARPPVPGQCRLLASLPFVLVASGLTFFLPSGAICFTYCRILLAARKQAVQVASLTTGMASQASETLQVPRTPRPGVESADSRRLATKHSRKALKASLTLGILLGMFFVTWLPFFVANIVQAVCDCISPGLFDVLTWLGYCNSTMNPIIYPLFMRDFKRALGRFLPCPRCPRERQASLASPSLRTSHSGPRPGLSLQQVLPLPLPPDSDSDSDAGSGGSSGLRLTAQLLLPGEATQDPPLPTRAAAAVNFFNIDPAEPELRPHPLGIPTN

Structure (SMILES)	melting point	Ki [1] [nM]	inhibition at 1 µM [1] [%]
CCN(CC)CCc1c[nH]c2ccc(NS(=O)(=O)c3cccc4ccccc34)cc12 (as salt: HCl) [Example 3, Hydrochloride N-[3-(2-diethylaminoethyl)-1H-indol-5-yl]naphthalene-1-sulphonamide]	255 to 257 °C	–	–
CN1CCC(c2c[nH]c3ccc(NS(=O)(=O)c4cccc5ccccc45)cc23)CC1 (as salt: HCl) [Example 13, N-[3-(1-methylpiperidin-4-yl)-1H-indol-5-yl]naphthalene-1-sulphonamide hydrochloride]	212 °C (dec.)	–	–
CCN(CC)CCc1c[nH]c2ccc(NS(=O)(=O)c3sc4ccc(Cl)cc4c3C)cc12 [Example 1, N-[3-(2-diethylaminoethyl)-1H-indol-5-yl]-5-chloro-3-methylbenzo[b]thiophene-2-sulphonamide]	170 to 173 °C	0.28	98.1 ± 4
CCN(CC)CCc1c[nH]c2ccc(NS(=O)(=O)c3cccc4ccccc34)cc12 [Example 3, Hydrochloride N-[3-(2-diethylaminoethyl)-1H-indol-5-yl]naphthalene-1-sulphonamide]	–	–	96.6 ± 5.2
CCN(CC)CCc1c[nH]c2ccc(NS(=O)(=O)c3cc(Cl)cc(Cl)c3)cc12 [Example 4, N-[3-(2-diethylaminoethyl)-1H-indol-5-yl]-3,5-dichlorobenzenesulphonamide]	168 to 170 °C	–	96.2 ± 0.6
CCN(CC)CCc1c[nH]c2ccc(NS(=O)(=O)c3ccc(-c4ccccc4)cc3)cc12 [Example 5, N-[3-(2-diethylaminoethyl)-1H-indol-5-yl]-4-phenylbenzenesulphonamide]	161 to 163 °C	–	101.2 ± 0.1
CCN(CC)CCc1c[nH]c2ccc(NS(=O)(=O)c3ccc(Cl)s3)cc12 [Example 6, N-[3-(2-diethylaminoethyl)-1H-indol-5-yl]-5-chlorothiophene-2-sulphonamide]	180 to 181 °C	8.7	97.6 ± 1.8
Cc1c(S(=O)(=O)Nc2ccc3[nH]cc(CCN(C)C)c3c2)sc2ccc(Cl)cc12 [Example 7, N-[3-(2-dimethylaminoethyl)-1H-indol-5-yl]-5-chloro-3-methylbenzo[b]thiophene-2-sulphonamide]	226 to 227 °C	0.13	103 ± 7.9
CN(C)CCc1c[nH]c2ccc(NS(=O)(=O)c3cccc4ccccc34)cc12 [Example 8, N-[3-(2-dimethylaminoethyl)-1H-indol-5-yl]naphthalene-1-sulphonamide]	203 to 205 °C	0.76	94.5 ± 7
CN(C)CCc1c[nH]c2ccc(NS(=O)(=O)c3c(Cl)nc4sccn34)cc12 [Example 9, N-[3-(2-dimethylamino-ethyl)-1H-indol-5-yl]-6-chloroimidazo[2,1-b]thiazol-5-sulphonamide]	–	–	96.8 ± 3.7
Cc1c(S(=O)(=O)Nc2ccc3[nH]cc(C4CCN(C)CC4)c3c2)sc2ccc(Cl)cc12 [Example 11, N-[3-(1-methylpiperidin-4-yl)-1H-indol-5-yl]-5-chloro-3-methylbenzo[b]thiophene-2-sulphonamide hydrochloride]	–	0.98	101
CN1CCC(c2c[nH]c3ccc(NS(=O)(=O)c4cccc5ccccc45)cc23)CC1 [Example 13, N-[3-(1-methylpiperidin-4-yl)-1H-indol-5-yl]naphthalene-1-sulphonamide hydrochloride]	–	–	98.3
CN1CCC(c2c[nH]c3ccc(NS(=O)(=O)c4ccc(Cl)s4)cc23)CC1 [Example 14, N-[3-(1-methylpiperidin-4-yl)-1H-indol-5-yl]-5-chlorothiophene-2-sulphonamide]	284 °C (dec.)	–	–
CN1CCC(c2c[nH]c3ccc(NS(=O)(=O)c4ccc(-c5ccccc5)cc4)cc23)CC1 [Example 15, N-[3-(1-methylpiperidin-4-yl)-1H-indol-5-yl]-4-phenylbenzenesulphonamide]	247 to 248 °C	–	–
CN1CCC(c2c[nH]c3ccc(NS(=O)(=O)c4cccc5cccnc45)cc23)CC1 [Example 16, N-[3-(1-methylpiperidin-4-yl)-1H-indol-5-yl]quinoline-8-sulphonamide]	280 °C (dec.)	–	–
CCN(CC)CCc1c[nH]c2ccc(NS(=O)(=O)c3ccc4ccccc4c3)cc12 [Example 17, N-[3-(2-diethylaminoethyl)-1H-indol-5-yl]naphthalene-2-sulphonamide]	172 to 173 °C	–	102
